Measurements published in patent US20020115678A1, “Compounds, compositions and methods for treating antibiotic-resistant infections” (priority 1996, published 2002).

Legend:
[1] = test system: Staphylococcus aureus methicillin-resistant wild type T67738; experiment: Susceptibility test (MIC, microtiter serial dilution), methicillin-resistant S. aureus; format: cell-based; conditions: MIC by serial dilution in Mueller-Hinton broth
Method: (§1) The strains were streaked on blood agar plates (trypticase soy broth containing 5% sheep cells). A single colony was isolated and grown in Mueller-Hinton Broth (MHB) as recommended by the national Committee for Clinical Laboratory Standards for rapidly growing bacteria. Candida species and related fungi were isolated in a similar manner on brain-heart infusion agar (BHI).
(§2) The antibiotic susceptibility profile of each strain was determined using standard microtiter dilution plates obtained from the Clinical Microbiology Laboratory at Ohio State University Hospitals. The Inocula were prepared by suspending a 4 hour log phase growth in MHB visually equal in turbidity of an 0.5 McFarland standard. Inocula were further diluted and added to microdilution trays to achieve a final density of approximately 1×10^5 CFU/ml. The trays were incubated for 16 to 20 hours at 35° C. The highest dilution at which wells remained clear was considered to be the minimum inhibitory concentration (MIC).
(§3) The MIC and minimum bacterial concentration (MBC) of the strains to the active agents were determined by two-fold dilutions in Mueller-Hinton broth. Susceptibility tests for ATCC-obtained microorganisms and clincal isolates of gram positive bacteria including methicillin-susceptible and resistant Staphylococci, Streptococci, Pneumococci and gram negative bacteria, including Enterobacteriaceae, Pseudomonas, Hemophilus and Neisseria, were performed in microtiter plates as described above. The MIC and MBC were determined after 48 hours incubation at 35-37° C. A sample of 0.01 ml was taken from each clear well at the MIC end-point and streaked on trypticase soy agar plates. After 24 hours incubation, the number of colonies was counted. The amount of the agent required to kill 99.9% of the bacteria was determined as the MBC. Susceptibility tests for ATCC isolates of Candida and other fungi were performed in BHI broth according to the NCCLS method. Two ml of MHB containing serial dilutions of the agents compounds were added to 13×100 mm tubes. An inoculum of 0.1 ml (prepared as described above) was then added to each tube. The final inoculum was approximately […]. The tubes were incubated at 35° C. in ambient air and read at 24 hours. The highest dilution at which the tubes remained clear was considered to be the MIC.
(§4) The MBC was determined as follows: After 48 hours incubation, tubes without visible growth were vortexed. A sample of 0.01 ml was taken from each tube and streaked on trypticase soy agar plates. After 24 hours, incubation, the number of colonies was counted. The amount of agent required to kill 99.9% of bacterial inoculum in the inoculum was determined as the MBC. Susceptibility tests for Mycobacteria were performed according to standard methods at the national Institutes of Health.
(§5) Compounds of the invention were dissolved in 1 ml of methanol and stored in aliquots at −70° C. They were diluted in Mueller-Hinton broth for final screening. Compositions were tested in 0.1 ml volumes by serial dilution in microtiter plates against Staphylococcus aureus methicillin-sensitive ATCC 29213 and the methicillin-resistant wild type T67738, as described above. The T67738 was resistant to most antimicrobial drugs, including ciprofloxacin.

[2] = test system: Staphylococcus aureus methicillin-sensitive ATCC 29213; experiment: Susceptibility test (MIC, microtiter serial dilution), methicillin-sensitive S. aureus; format: cell-based; conditions: methicillin-sensitive S. aureus ATCC 29213; MIC by serial dilution in Mueller-Hinton broth
Method: as §1, §2, §3, §4, §5

[3] = test system: Mycobacteria; experiment: Susceptibility tests for Mycobacteria (standard methods, National Institutes of Health); format: cell-based
Method: as §4

[4] = test system: bacterial pathogens; conditions: background statement; cited from earlier work

SMILES	Effective Concentration S. aureous Resist. [1] [µg/mL]	Effective Concentration S. aureous Sens. [2]	Effective Concentration Mycobacteria [3] [µg/mL]	activity against bacterial pathogens in vitro [4]
OC(c1cc(-c2ccc(Cl)cc2)nc2ccccc12)C1CCCCN1 (centres unmarked) [#7929]	6.25	6.25 µg/mL	–	–
OC(c1cc(-c2ccccc2)nc2c(Cl)cc(Cl)cc12)C1CCCCN1 (centres unmarked) [#7930]	1.6	<.08 µg/mL	2	–
OC(c1cc(-c2ccc(Cl)cc2)nc2c(Cl)cc(Cl)cc12)C1CCCCN1 (centres unmarked) [#7936]	<0.8	<0.8 µg/mL	–	–
CCC1CN2CCC1CC2C(O)c1ccnc2ccc(OC)cc12 (centres unmarked) [#112312]	1.56	1.56 µg/mL	128	–
CCCC(CCC)NCC(O)c1cc(-c2ccc(Cl)cc2)nc(-c2ccc(Cl)cc2)c1 (centres unmarked) [#153136]	3.0	–	–	–
OC(c1cc(-c2ccc(C(F)(F)F)cc2)nc(-c2ccc(C(F)(F)F)cc2)c1)C1CCCCN1 (centres unmarked) [#153141]	–	–	0.5	–
COc1cc(C(F)(F)F)c2nc(C(F)(F)F)cc(C(O)C3CCCCN3)c2c1 (centres unmarked) [#159314]	3.1	6.25 µg/mL	–	–
O=C(c1cc(-c2ccccc2)nc2c(Cl)cc(Cl)cc12)C1CCCCN1 (centres unmarked) [#169446]	1.6	1.6 µg/mL	2	–
COc1ccc2nc(-c3ccc(Cl)c(Cl)c3)cc(C(O)C3CCCCN3)c2c1 (centres unmarked) [#259398]	1.56	1.56 µg/mL	–	–
OC(c1cc(C(F)(F)F)nc2c(C(F)(F)F)cccc12)C1CCCCN1 (centres unmarked) [Mefloquine]	–	–	–	some activity
